Results taken from patent US10597388B2, “Pyridazinone herbicides” (FMC CORPORATION, priority 2014, dated 2020).

Assays:
Experiment in all cases: Test D controlled growth environment herbicide test, pre- and postemergence
Format in all cases: in vivo
[1] = system: oat, wild (wild oat, Avena fatua)
Outline: (§1)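 Pre-emergence: seeds sown in silt loam soil were sprayed with compound in a non-phytotoxic solvent mix containing surfactant. Post-emergence: plants at 2 to 18 cm (1- to 4-leaf stage) in peat moss/vermiculite medium got the same formulation. Visual 0–100 rating versus controls after 14 to 21 d.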

[2] = system: bluegrass (annual bluegrass, Poa annua)
Outline: as §1

[3] = system: barley, winter (winter barley, Hordeum vulgare)
Outline: as §1

[4] = system: barley, spring (spring barley, Hordeum vulgare)
Outline: as §1

[5] = system: mustard, wild (wild mustard, Sinapis arvensis)
Outline: as §1

[6] = system: speedwell (bird's-eye speedwell, Veronica persica)
Outline: as §1

[7] = system: pigweed (Amaranthus retroflexus)
Outline: as §1

[8] = system: galium (catchweed bedstraw, Galium aparine)
Outline: as §1

[9] = system: radish, wild (wild radish, Raphanus raphanistrum)
Outline: as §1

[10] = system: buckwheat, wild (wild buckwheat, Polygonum convolvulus)
Outline: as §1

[11] = system: chamomile (scentless chamomile, Matricaria inodora)
Outline: as §1

[12] = system: field poppy (Papaver rhoeas)
Outline: as §1

[13] = system: oilseed rape (Brassica napus)
Outline: as §1

[14] = Postemergence, 31 g ai/ha, scale 0 to 100 (0 no effect, 100 complete control)
[15] = Postemergence, 125 g ai/ha, visual rating on scale 0 (no effect) to 100 (complete control), 14 to 21 d
[16] = Postemergence, 250 g ai/ha, scale 0 to 100 (0 no effect, 100 complete control)
[17] = Preemergence, 62 g ai/ha, scale 0 to 100 (0 no effect, 100 complete control)
[18] = Preemergence, 125 g ai/ha, scale 0 to 100 (0 no effect, 100 complete control)
[19] = Preemergence, 250 g ai/ha, scale 0 to 100 (0 no effect, 100 complete control)
[20] = postemergence, 62 g ai/ha, scale 0 to 100, 0 no effect, 100 complete control

For COc1nn(C)c(=O)c(-c2c(C)ccc3ccccc23)c1O [Compound 54], the “Oat, Wild plant response rating” value [1, 14] was 75, the “Plant response rating, Oat, Wild” value [1, 15] was 90 and the “Plant response rating, Oat, Wild” value [1, 16] was 90. The “Plant response rating (scale of 0 to 100), Oat, Wild” value ([1]; Preemergence, 31 g ai/ha) was 75, the “Plant response rating, Oat, Wild” value [1, 17] was 75 and the “Plant response rating, Oat, Wild” value [1, 18] was 85. The “Plant response rating, Oat, Wild” value [1, 19] was 95, the “Plant response rating, Oat, Wild” value [1, 20] was 85 and the “Bluegrass plant response rating” value [2, 14] was 10. The “Plant response rating, Bluegrass” value [2, 15] was 25, the “Plant response rating, Bluegrass” value [2, 16] was 35 and the “Plant response rating (scale of 0 to 100), Bluegrass” value ([2]; Preemergence, 31 g ai/ha) was 0. The “Plant response rating, Bluegrass” value [2, 17] was 10, the “Plant response rating, Bluegrass” value [2, 18] was 15 and the “Plant response rating, Bluegrass” value [2, 19] was 25. The “Plant response rating, Bluegrass” value [2, 20] was 15, the “Barley, Winter plant response rating” value [3, 14] was 0 and the “Plant response rating, Barley, Winter” value [3, 15] was 5. For the same compound, the “Plant response rating, Barley, Winter” value [3, 16] was 30, the “Plant response rating (scale of 0 to 100), Barley, Winter” value ([3]; Preemergence, 31 g ai/ha) was 0 and the “Plant response rating, Barley, Winter” value [3, 17] was 0. The “Plant response rating, Barley, Winter” value [3, 18] was 0, the “Plant response rating, Barley, Winter” value [3, 19] was 0 and the “Plant response rating, Barley, Winter” value [3, 20] was 0. The “Barley, Spring plant response rating” value [4, 14] was 0, the “Plant response rating, Barley, Spring” value [4, 15] was 0 and the “Plant response rating, Barley, Spring” value [4, 16] was 10. The “Plant response rating (scale of 0 to 100), Barley, Spring” value ([4]; Preemergence, 31 g ai/ha) was 0, the “Plant response rating, Barley, Spring” value [4, 17] was 0 and the “Plant response rating, Barley, Spring” value [4, 18] was 0. For the same compound, the “Plant response rating, Barley, Spring” value [4, 19] was 5, the “Plant response rating, Barley, Spring” value [4, 20] was 0 and the “Mustard, Wild plant response rating” value [5, 14] was 100. The “Plant response rating, Mustard, Wild” value [5, 15] was 100, the “Plant response rating, Mustard, Wild” value [5, 16] was 100 and the “Plant response rating (scale of 0 to 100), Mustard, Wild” value ([5]; Preemergence, 31 g ai/ha) was 50. For the same compound, the “Plant response rating, Mustard, Wild” value [5, 17] was 100, the “Plant response rating, Mustard, Wild” value [5, 18] was 100 and the “Plant response rating, Mustard, Wild” value [5, 19] was 100. The “Plant response rating, Mustard, Wild” value [5, 20] was 100, the “Speedwell plant response rating” value [6, 14] was 75 and the “Plant response rating, Speedwell” value [6, 15] was 100. For the same compound, the “Plant response rating, Speedwell” value [6, 16] was 100, the “Plant response rating (scale of 0 to 100), Speedwell” value ([6]; Preemergence, 31 g ai/ha) was 100 and the “Plant response rating, Speedwell” value [6, 17] was 95. For the same compound, the “Plant response rating, Speedwell” value [6, 18] was 100, the “Plant response rating, Speedwell” value [6, 19] was 100 and the “Plant response rating, Speedwell” value [6, 20] was 100. The “Pigweed plant response rating” value [7, 14] was 100, the “Plant response rating, Pigweed” value [7, 15] was 100 and the “Plant response rating, Pigweed” value [7, 16] was 100. The “Plant response rating (scale of 0 to 100), Pigweed” value ([7]; Preemergence, 31 g ai/ha) was 80, the “Plant response rating, Pigweed” value [7, 17] was 100 and the “Plant response rating, Pigweed” value [7, 18] was 100. The “Plant response rating, Pigweed” value [7, 19] was 100, the “Plant response rating, Pigweed” value [7, 20] was 100 and the “Galium plant response rating” value [8, 14] was 100. For the same compound, the “Plant response rating, Galium” value [8, 15] was 100, the “Plant response rating, Galium” value [8, 16] was 100 and the “Plant response rating (scale of 0 to 100), Galium” value ([8]; Preemergence, 31 g ai/ha) was 0. The “Plant response rating, Galium” value [8, 17] was 45, the “Plant response rating, Galium” value [8, 18] was 85 and the “Plant response rating, Galium” value [8, 19] was 100. For the same compound, the “Plant response rating, Galium” value [8, 20] was 100, the “Radish, Wild plant response rating” value [9, 14] was 80 and the “Plant response rating, Radish, Wild” value [9, 15] was 100. For the same compound, the “Plant response rating, Radish, Wild” value [9, 16] was 100, the “Plant response rating (scale of 0 to 100), Radish, Wild” value ([9]; Preemergence, 31 g ai/ha) was 25 and the “Plant response rating, Radish, Wild” value [9, 17] was 100. For the same compound, the “Plant response rating, Radish, Wild” value [9, 18] was 100, the “Plant response rating, Radish, Wild” value [9, 19] was 100 and the “Plant response rating, Radish, Wild” value [9, 20] was 100. The “Buckwheat, Wild plant response rating” value [10, 14] was 100, the “Plant response rating, Buckwheat, Wild” value [10, 15] was 100 and the “Plant response rating, Buckwheat, Wild” value [10, 16] was 100. For the same compound, the “Plant response rating (scale of 0 to 100), Buckwheat, Wild” value ([10]; Preemergence, 31 g ai/ha) was 0, the “Plant response rating, Buckwheat, Wild” value [10, 17] was 5 and the “Plant response rating, Buckwheat, Wild” value [10, 18] was 70. The “Plant response rating, Buckwheat, Wild” value [10, 19] was 80, the “Plant response rating, Buckwheat, Wild” value [10, 20] was 100 and the “Chamomile plant response rating” value [11, 14] was 90. The “Plant response rating, Chamomile” value [11, 15] was 100, the “Plant response rating, Chamomile” value [11, 16] was 100 and the “Plant response rating, Chamomile” value [11, 20] was 100. The “Field Poppy plant response rating” value [12, 14] was 70, the “Plant response rating, Field Poppy” value [12, 15] was 100 and the “Plant response rating, Field Poppy” value [12, 16] was 100. For the same compound, the “Plant response rating (scale of 0 to 100), Field Poppy” value ([12]; Preemergence, 31 g ai/ha) was 90, the “Plant response rating, Field Poppy” value [12, 17] was 55 and the “Plant response rating, Field Poppy” value [12, 18] was 100. The “Plant response rating, Field Poppy” value [12, 19] was 100, the “Plant response rating, Field Poppy” value [12, 20] was 100 and the “Oilseed Rape plant response rating” value [13, 14] was 75. The “Plant response rating, Oilseed Rape” value [13, 15] was 100, the “Plant response rating, Oilseed Rape” value [13, 16] was 100 and the “Plant response rating (scale of 0 to 100), Oilseed Rape” value ([13]; Preemergence, 31 g ai/ha) was 15. The “Plant response rating, Oilseed Rape” value [13, 17] was 50, the “Plant response rating, Oilseed Rape” value [13, 18] was 85 and the “Plant response rating, Oilseed Rape” value [13, 19] was 100. The “Plant response rating, Oilseed Rape” value [13, 20] was 95.
